The target in assay [1] is T1, Alpha-1A adrenergic receptor (Homo sapiens, UniProt P35348). Further: assay procedure not described here.
T1 sequence (P35348 whole entry): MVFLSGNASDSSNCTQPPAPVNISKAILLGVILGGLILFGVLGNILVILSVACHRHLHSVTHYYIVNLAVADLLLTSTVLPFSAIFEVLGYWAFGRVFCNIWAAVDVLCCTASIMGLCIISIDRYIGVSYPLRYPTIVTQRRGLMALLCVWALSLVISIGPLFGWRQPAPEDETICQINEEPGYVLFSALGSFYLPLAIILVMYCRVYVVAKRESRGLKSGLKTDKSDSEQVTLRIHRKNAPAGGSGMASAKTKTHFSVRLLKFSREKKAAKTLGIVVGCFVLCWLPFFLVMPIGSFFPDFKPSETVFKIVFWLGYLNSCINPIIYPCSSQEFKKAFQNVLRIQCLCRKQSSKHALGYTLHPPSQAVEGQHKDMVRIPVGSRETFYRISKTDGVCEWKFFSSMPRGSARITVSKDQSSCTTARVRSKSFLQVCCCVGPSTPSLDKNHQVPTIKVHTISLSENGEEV
Type of assay: functional, cell-based.

The next assay addresses T2, Glucocorticoid receptor (Homo sapiens, UniProt P04150).
T2 sequence (P04150 whole entry): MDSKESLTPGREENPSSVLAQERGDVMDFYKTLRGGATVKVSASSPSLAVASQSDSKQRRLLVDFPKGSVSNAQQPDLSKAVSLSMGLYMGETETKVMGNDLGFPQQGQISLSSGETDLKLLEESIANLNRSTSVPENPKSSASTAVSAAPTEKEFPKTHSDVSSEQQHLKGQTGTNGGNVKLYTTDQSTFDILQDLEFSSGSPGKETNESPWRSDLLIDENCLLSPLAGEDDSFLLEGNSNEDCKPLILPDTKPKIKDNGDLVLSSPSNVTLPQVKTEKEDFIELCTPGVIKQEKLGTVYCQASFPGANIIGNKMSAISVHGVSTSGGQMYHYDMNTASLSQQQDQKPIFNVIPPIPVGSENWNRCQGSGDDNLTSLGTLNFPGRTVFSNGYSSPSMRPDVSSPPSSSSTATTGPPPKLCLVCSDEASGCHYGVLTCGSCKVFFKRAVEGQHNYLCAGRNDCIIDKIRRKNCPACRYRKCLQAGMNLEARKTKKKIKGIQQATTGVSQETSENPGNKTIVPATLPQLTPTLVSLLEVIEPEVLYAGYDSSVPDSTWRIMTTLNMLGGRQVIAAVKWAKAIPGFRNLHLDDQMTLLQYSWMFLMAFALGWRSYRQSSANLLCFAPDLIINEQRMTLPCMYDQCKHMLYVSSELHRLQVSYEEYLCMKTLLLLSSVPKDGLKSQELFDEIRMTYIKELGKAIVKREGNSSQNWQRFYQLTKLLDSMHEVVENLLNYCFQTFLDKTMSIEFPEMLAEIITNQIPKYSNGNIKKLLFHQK
Type of assay: functional.

Assay [2] deals with T3, Alpha-2C adrenergic receptor (Homo sapiens, UniProt P18825).
T3 sequence (P18825 whole entry): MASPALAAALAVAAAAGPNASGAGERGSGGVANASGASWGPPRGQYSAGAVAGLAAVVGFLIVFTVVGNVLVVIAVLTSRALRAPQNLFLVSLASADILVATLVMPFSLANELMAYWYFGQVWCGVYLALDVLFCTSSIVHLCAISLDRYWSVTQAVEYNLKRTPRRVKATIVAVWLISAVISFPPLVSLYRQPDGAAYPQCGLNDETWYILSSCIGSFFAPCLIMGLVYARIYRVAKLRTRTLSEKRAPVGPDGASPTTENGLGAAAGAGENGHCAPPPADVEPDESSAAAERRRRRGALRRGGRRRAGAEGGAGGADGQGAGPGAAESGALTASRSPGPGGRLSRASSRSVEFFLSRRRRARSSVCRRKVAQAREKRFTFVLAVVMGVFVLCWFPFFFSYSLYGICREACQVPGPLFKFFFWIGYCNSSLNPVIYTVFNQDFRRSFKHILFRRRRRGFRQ
It is filed as functional.

The target in assay [3] is T4, Gamma-aminobutyric acid receptor subunit alpha-1/alpha-2/beta-2/gamma-2 (Homo sapiens, UniProt P14867+P47870+P18507+P47869). It is filed as functional, cell-based.
Assay [4] deals with T5, Muscarinic acetylcholine receptor M1 (Homo sapiens, UniProt P11229).
T5 sequence (P11229 whole entry): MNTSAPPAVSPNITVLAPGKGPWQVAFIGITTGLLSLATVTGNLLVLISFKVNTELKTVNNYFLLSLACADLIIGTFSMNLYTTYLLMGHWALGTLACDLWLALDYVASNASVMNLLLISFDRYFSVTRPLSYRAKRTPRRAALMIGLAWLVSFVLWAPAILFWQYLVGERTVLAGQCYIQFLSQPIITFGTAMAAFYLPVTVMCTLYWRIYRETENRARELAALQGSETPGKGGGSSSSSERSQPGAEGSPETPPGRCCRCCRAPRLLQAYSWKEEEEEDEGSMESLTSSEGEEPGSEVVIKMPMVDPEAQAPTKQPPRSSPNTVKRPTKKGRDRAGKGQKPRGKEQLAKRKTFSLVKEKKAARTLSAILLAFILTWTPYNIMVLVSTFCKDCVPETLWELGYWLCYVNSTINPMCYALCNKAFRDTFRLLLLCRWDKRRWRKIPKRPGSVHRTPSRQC

Assay [5] deals with T4, Gamma-aminobutyric acid receptor subunit alpha-1/alpha-2/beta-2/gamma-2. It is filed as functional, cell-based. This is another data set of the same source.

T4 sequence (P14867 whole entry): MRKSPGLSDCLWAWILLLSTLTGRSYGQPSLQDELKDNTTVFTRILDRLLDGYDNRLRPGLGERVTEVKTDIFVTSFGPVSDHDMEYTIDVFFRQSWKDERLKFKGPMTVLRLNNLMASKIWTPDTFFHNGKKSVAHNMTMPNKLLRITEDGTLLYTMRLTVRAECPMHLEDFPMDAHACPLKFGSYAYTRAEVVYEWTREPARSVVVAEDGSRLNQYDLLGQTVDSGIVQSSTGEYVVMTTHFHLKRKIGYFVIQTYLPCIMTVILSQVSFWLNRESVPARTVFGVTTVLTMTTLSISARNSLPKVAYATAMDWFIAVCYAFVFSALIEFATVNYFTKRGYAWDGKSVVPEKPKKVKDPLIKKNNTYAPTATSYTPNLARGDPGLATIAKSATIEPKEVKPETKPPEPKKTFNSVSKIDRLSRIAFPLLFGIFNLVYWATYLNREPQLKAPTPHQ
T4 sequence (P47870 whole entry): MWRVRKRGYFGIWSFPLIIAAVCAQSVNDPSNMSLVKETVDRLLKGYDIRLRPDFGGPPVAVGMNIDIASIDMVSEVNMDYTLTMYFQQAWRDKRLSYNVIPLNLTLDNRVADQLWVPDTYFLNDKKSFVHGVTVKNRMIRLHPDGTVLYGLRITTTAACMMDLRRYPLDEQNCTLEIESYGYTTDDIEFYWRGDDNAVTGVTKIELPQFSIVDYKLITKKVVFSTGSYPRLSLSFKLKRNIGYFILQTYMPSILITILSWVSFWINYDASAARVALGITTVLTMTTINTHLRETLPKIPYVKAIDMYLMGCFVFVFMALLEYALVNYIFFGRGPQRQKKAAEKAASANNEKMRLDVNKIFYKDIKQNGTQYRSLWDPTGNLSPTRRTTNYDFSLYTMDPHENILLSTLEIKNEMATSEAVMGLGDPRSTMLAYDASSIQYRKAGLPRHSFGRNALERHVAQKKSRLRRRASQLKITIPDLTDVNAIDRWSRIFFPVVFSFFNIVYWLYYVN
T4 sequence (P18507 whole entry): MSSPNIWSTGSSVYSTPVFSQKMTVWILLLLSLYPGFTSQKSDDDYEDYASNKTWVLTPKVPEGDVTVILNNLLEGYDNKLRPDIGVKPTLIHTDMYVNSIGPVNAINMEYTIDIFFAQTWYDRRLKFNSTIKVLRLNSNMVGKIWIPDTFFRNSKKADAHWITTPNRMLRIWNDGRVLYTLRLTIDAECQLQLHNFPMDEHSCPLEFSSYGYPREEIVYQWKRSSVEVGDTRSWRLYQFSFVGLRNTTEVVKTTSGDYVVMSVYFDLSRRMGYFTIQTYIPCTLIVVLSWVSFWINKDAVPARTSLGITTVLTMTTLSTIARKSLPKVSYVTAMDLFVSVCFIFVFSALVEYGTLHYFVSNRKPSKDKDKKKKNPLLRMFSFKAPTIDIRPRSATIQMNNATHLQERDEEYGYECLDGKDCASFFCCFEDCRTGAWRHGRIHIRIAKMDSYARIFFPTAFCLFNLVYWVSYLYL
T4 sequence (P47869 whole entry): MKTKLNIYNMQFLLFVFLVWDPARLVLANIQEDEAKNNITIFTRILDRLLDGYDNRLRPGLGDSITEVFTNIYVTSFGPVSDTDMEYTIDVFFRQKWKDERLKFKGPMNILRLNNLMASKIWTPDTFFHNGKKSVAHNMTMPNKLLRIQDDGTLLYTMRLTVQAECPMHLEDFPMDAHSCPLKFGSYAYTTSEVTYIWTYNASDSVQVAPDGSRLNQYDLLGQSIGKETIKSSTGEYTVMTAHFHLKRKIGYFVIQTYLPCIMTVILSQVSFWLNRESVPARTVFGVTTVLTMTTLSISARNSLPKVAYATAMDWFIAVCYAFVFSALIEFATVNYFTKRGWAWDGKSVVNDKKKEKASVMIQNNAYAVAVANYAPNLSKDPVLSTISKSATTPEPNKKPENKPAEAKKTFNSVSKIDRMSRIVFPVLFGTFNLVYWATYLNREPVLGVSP

For `NCCCC(O)(P(=O)(O)O)P(=O)(O)O` [ALENDRONIC ACID], the AC50 in assay [1] is above 30 µM. As for `COc1cccc2c1C(=O)c1c(O)c3c(c(O)c1C2=O)C[C@@](O)(C(C)=O)C[C@@H]3O[C@H]1C[C@H](N)[C@H](O)[C@H](C)O1` [DAUNORUBICIN], the AC50 on Glucocorticoid receptor is above 10 µM. In the case of `CC(C)CC(N(C)C)C1(c2ccc(Cl)cc2)CCC1` (stereo unspecified) [SIBUTRAMINE], the activity in assay [2] was half-maximal at 0.758 µM (AC50).

As for COLISTIN, the AC50 in assay [3], in assay [4] and in assay [5] was above 30 µM each time.

In general, AC50 refers to the concentration at which the activity in the assay is half-maximal.

For the origin of these results see ChEMBL document CHEMBL5291721, “A preclinical secondary pharmacology resource illuminates target-adverse drug reaction associations of marketed drugs” (Nat Commun, 2023).
